Measurements taken from ChEMBL document CHEMBL1201861, “Genomics of Drug Sensitity in Cancer screening data, Wellcome Trust Sanger Institute”.

Key:
COR-L279 = test: SANGER: Inhibition of human COR-L279 cell growth in a cell viability assay.; assay type: functional, cell-based
EVSA-T = test: cells; assay type: functional, cell-based; settings: Homo sapiens;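 further: growth inhibition of EVSA-T cells, read out with a cell viability assay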
Description: SANGER: Inhibition of human EVSA-T cell growth in a cell viability assay.

LU-165 = test: cells; assay type: functional, cell-based; settings: Homo sapiens
Description: SANGER: Inhibition of human LU-165 cell growth in a cell viability assay.

MONO-MAC-6 = test: cells; assay type: functional, cell-based; settings: Homo sapiens;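 further: cell viability assay measuring growth inhibition of human MONO-MAC-6 cells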
Description: SANGER: Inhibition of human MONO-MAC-6 cell growth in a cell viability assay.

NB1 = test: cells; assay type: functional, cell-based; settings: Homo sapiens;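 further: reduction of NB1 cell proliferation, read out with a viability assay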
Description: SANGER: Inhibition of human NB1 cell growth in a cell viability assay.

NCI-H2196 = test: cells; assay type: functional, cell-based; settings: Homo sapiens;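 further: cell viability assay used as the readout of growth inhibition in NCI-H2196 cells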
Description: SANGER: Inhibition of human NCI-H2196 cell growth in a cell viability assay.

NCI-H64 = test: cells; assay type: functional, cell-based; settings: Homo sapiens;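 further: growth inhibition of NCI-H64 cells, read out with a cell viability assay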
Description: SANGER: Inhibition of human NCI-H64 cell growth in a cell viability assay.

SCC-3 = test: cells; assay type: functional, cell-based; settings: Homo sapiens;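 further: cell viability assay measuring inhibition of SCC-3 cell growth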
Description: SANGER: Inhibition of human SCC-3 cell growth in a cell viability assay.

SIG-M5 = test: cells; assay type: functional, cell-based; settings: Homo sapiens;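 further: cell viability assay read-out, measuring how strongly growth of cultured human SIG-M5 cells is inhibited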
Description: SANGER: Inhibition of human SIG-M5 cell growth in a cell viability assay.

SIMA = test: cells; assay type: functional, cell-based; settings: Homo sapiens;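 further: growth inhibition of SIMA cells, measured with a cell viability readout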
Description: SANGER: Inhibition of human SIMA cell growth in a cell viability assay.

SU-DHL-1 = test: SANGER: Inhibition of human SU-DHL-1 cell growth in a cell viability assay.; assay type: functional, cell-based
TE-441-T = test: cells; assay type: functional, cell-based; settings: Homo sapiens
Description: SANGER: Inhibition of human TE-441-T cell growth in a cell viability assay.

TUR = test: cells; assay type: functional, cell-based; settings: Homo sapiens;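 further: growth inhibition of human TUR cells, read out with a cell viability assay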
Description: SANGER: Inhibition of human TUR cell growth in a cell viability assay.

EW-22 = test: cells; assay type: functional, cell-based; settings: Homo sapiens;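 further: growth inhibition of the EW-22 cell line, measured with a cell viability readout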
Description: SANGER: Inhibition of human EW-22 cell growth in a cell viability assay.

HCT-15 = test: cells; assay type: functional, cell-based; settings: Homo sapiens;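 further: cell viability readout, IC50 reflecting suppression of HCT-15 cell growth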
Description: SANGER: Inhibition of human HCT-15 cell growth in a cell viability assay.

HT-1080 = test: cells; assay type: functional, cell-based; settings: Homo sapiens
Description: SANGER: Inhibition of human HT-1080 cell growth in a cell viability assay.

HT-3 = test: cells; assay type: functional, cell-based; settings: Homo sapiens;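 further: growth inhibition measured with a cell viability readout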
Description: SANGER: Inhibition of human HT-3 cell growth in a cell viability assay.

JEG-3 = test: cells; assay type: functional, cell-based; settings: Homo sapiens;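 further: growth inhibition of human JEG-3 cells, read out with a cell viability assay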
Description: SANGER: Inhibition of human JEG-3 cell growth in a cell viability assay.

KOSC-2 = test: cells; assay type: functional, cell-based; settings: Homo sapiens;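 further: growth inhibition of KOSC-2 cells, read out by a cell viability assay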
Description: SANGER: Inhibition of human KOSC-2 cell growth in a cell viability assay.

KP-4 = test: cells; assay type: functional, cell-based; settings: Homo sapiens;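 further: human KP-4 cells, with growth inhibition read out through a cell viability assay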
Description: SANGER: Inhibition of human KP-4 cell growth in a cell viability assay.

KYSE-140 = test: cells; assay type: functional, cell-based; settings: Homo sapiens;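 further: cell viability assay measuring growth inhibition in human KYSE-140 cells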
Description: SANGER: Inhibition of human KYSE-140 cell growth in a cell viability assay.

KYSE-180 = test: cells; assay type: functional, cell-based; settings: Homo sapiens;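 further: growth inhibition of KYSE-180 cells, read out with a cell viability assay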
Description: SANGER: Inhibition of human KYSE-180 cell growth in a cell viability assay.

KYSE-270 = test: cells; assay type: functional, cell-based; settings: Homo sapiens;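 further: cell growth inhibition measured with a viability assay in the human KYSE-270 line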
Description: SANGER: Inhibition of human KYSE-270 cell growth in a cell viability assay.

KYSE-450 = test: cells; assay type: functional, cell-based; settings: Homo sapiens;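 further: cell growth inhibition measured by a viability assay in human KYSE-450 cells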
Description: SANGER: Inhibition of human KYSE-450 cell growth in a cell viability assay.

ME-180 = test: cells; assay type: functional, cell-based; settings: Homo sapiens;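 further: cell viability assay measuring growth inhibition of ME-180 cells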
Description: SANGER: Inhibition of human ME-180 cell growth in a cell viability assay.

MFE-280 = test: cells; assay type: functional, cell-based; settings: Homo sapiens;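 further: growth inhibition of MFE-280 cells, determined with a cell viability readout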
Description: SANGER: Inhibition of human MFE-280 cell growth in a cell viability assay.

MG-63 = test: cells; assay type: functional, cell-based; settings: Homo sapiens;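 further: growth inhibition of human MG-63 cells, read out with a cell viability assay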
Description: SANGER: Inhibition of human MG-63 cell growth in a cell viability assay.

MKN-1 = test: cells; assay type: functional, cell-based; settings: Homo sapiens;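 further: growth inhibition of human MKN1 cells, read out by a cell viability measurement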
Description: SANGER: Inhibition of human MKN1 cell growth in a cell viability assay.

MKN-28 = test: cells; assay type: functional, cell-based; settings: Homo sapiens;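 further: cell viability assay read-out, IC50 reflects suppression of growth of human MKN-28 cells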
Description: SANGER: Inhibition of human MKN28 cell growth in a cell viability assay.

MKN-45 = test: cells; assay type: functional, cell-based; settings: Homo sapiens;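 further: growth inhibition of human MKN-45 cells, measured with a cell viability assay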
Description: SANGER: Inhibition of human MKN45 cell growth in a cell viability assay.

NCI-H1993 = test: cells; assay type: functional, cell-based; settings: Homo sapiens;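 further: growth inhibition of the cancer cell line, assessed with a cell viability assay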
Description: SANGER: Inhibition of human NCI-H1993 cell growth in a cell viability assay.

NCI-H2009 = test: cells; assay type: functional, cell-based; settings: Homo sapiens;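 further: cell viability assay measuring inhibition of NCI-H2009 cell growth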
Description: SANGER: Inhibition of human NCI-H2009 cell growth in a cell viability assay.

NCI-H2170 = test: cells; assay type: functional, cell-based; settings: Homo sapiens;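 further: cell viability assay measuring growth inhibition of human NCI-H2170 cancer cells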
Description: SANGER: Inhibition of human NCI-H2170 cell growth in a cell viability assay.

NCI-H2342 = test: cells; assay type: functional, cell-based; settings: Homo sapiens;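 further: growth inhibition of the cancer cell line, determined with a cell viability assay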
Description: SANGER: Inhibition of human NCI-H2342 cell growth in a cell viability assay.

NCI-H596 = test: cells; assay type: functional, cell-based; settings: Homo sapiens;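 further: growth inhibition of NCI-H596 cells, read out with a cell viability assay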
Description: SANGER: Inhibition of human NCI-H596 cell growth in a cell viability assay.

OAW-28 = test: cells; assay type: functional, cell-based; settings: Homo sapiens;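 further: growth inhibition of OAW-28 cells, read out with a cell viability assay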
Description: SANGER: Inhibition of human OAW-28 cell growth in a cell viability assay.

OVCAR-3 = test: cells; assay type: functional, cell-based; settings: Homo sapiens;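 further: growth inhibition of human OVCAR-3 cells, determined by a cell viability assay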
Description: SANGER: Inhibition of human OVCAR-3 cell growth in a cell viability assay.

OVCAR-8 = test: cells; assay type: functional, cell-based; settings: Homo sapiens;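 further: growth inhibition of human OVCAR-8 cells, read out by a cell viability assay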
Description: SANGER: Inhibition of human OVCAR-8 cell growth in a cell viability assay.

P12-Ichikawa = test: cells; assay type: functional, cell-based; settings: Homo sapiens
RT-112 = test: cells; assay type: functional, cell-based; settings: Homo sapiens
Description: SANGER: Inhibition of human RT-112 cell growth in a cell viability assay.

SK-HEP1 = test: cells; assay type: functional, cell-based, SK-HEP-1; settings: Homo sapiens;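 further: cell viability readout used to quantify reduction in proliferation of human SK-HEP-1 cells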
Description: SANGER: Inhibition of human SK-HEP-1 cell growth in a cell viability assay.

SK-LU-1 = test: cells; assay type: functional, cell-based; settings: Homo sapiens;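 further: cell viability assay measuring growth inhibition of human SK-LU-1 cells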
Description: SANGER: Inhibition of human SK-LU-1 cell growth in a cell viability assay.

SW1088 = test: cells; assay type: functional, cell-based; settings: Homo sapiens;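 further: growth inhibition of human SW1088 cells, read out by a cell viability assay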
Description: SANGER: Inhibition of human SW1088 cell growth in a cell viability assay.

SW1417 = test: cells; assay type: functional, cell-based; settings: Homo sapiens;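 further: growth inhibition of human SW1417 cells, read out with a cell viability assay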
Description: SANGER: Inhibition of human SW1417 cell growth in a cell viability assay.

SW1783 = test: cells; assay type: functional, cell-based; settings: Homo sapiens
Description: SANGER: Inhibition of human SW1783 cell growth in a cell viability assay.

SAOS-2 = test: cells; assay type: functional, cell-based; settings: Homo sapiens;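 further: growth inhibition of human Saos-2 cells determined by a cell viability assay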
Description: SANGER: Inhibition of human Saos-2 cell growth in a cell viability assay.

T98G = test: cells; assay type: functional, cell-based; settings: Homo sapiens;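 further: growth inhibition of T98G cells, read out by a cell viability assay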
Description: SANGER: Inhibition of human T98G cell growth in a cell viability assay.

TCC-SUP = test: cells; assay type: functional, cell-based; settings: Homo sapiens;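 further: growth inhibition of TCC-SUP cells, read out with a cell viability assay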
Description: SANGER: Inhibition of human TCCSUP cell growth in a cell viability assay.

647-V = test: cells; assay type: functional, cell-based; settings: Homo sapiens;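 further: growth inhibition of 647-V cells, read out with a cell viability assay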
Description: SANGER: Inhibition of human 647-V cell growth in a cell viability assay.

A673 = test: cells; assay type: functional, cell-based; settings: Homo sapiens;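 further: growth inhibition of human A673 cells, read out through a cell viability assay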
Description: SANGER: Inhibition of human A673 cell growth in a cell viability assay.

AU565 = test: cells; assay type: functional, cell-based; settings: Homo sapiens;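 further: cell viability assay measuring growth inhibition of human AU565 cells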
Description: SANGER: Inhibition of human AU565 cell growth in a cell viability assay.

BFTC-909 = test: cells; assay type: functional, cell-based; settings: Homo sapiens
Description: SANGER: Inhibition of human BFTC-909 cell growth in a cell viability assay.

CAL-62 = test: cells; assay type: functional, cell-based; settings: Homo sapiens;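 further: growth inhibition of CAL-62 cells, read out with a cell viability assay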
Description: SANGER: Inhibition of human CAL-62 cell growth in a cell viability assay.

UMUC3 = test: cells; assay type: functional, cell-based; settings: Homo sapiens;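 further: growth inhibition of human UM-UC-3 cells, read out with a cell viability assay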
Description: SANGER: Inhibition of human UM-UC-3 cell growth in a cell viability assay.

YKG-1 = test: cells; assay type: functional, cell-based; settings: Homo sapiens;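 further: cell growth inhibition, read out with a viability assay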
Description: SANGER: Inhibition of human YKG-1 cell growth in a cell viability assay.

CHL-1 = test: cells; assay type: functional, cell-based; settings: Homo sapiens;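 further: cell growth inhibition, read out with a cell viability assay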
Description: SANGER: Inhibition of human CHL-1 cell growth in a cell viability assay.

SMILES: COc1cc(C)c(Sc2cnc(NC(=O)c3ccc(CNC(C)C(C)(C)C)cc3)s2)cc1C(=O)N1CCN(C(C)=O)CC1 (configuration not stated)
- IC50 (COR-L279): > 10200 nM
- IC50 (EVSA-T): > 10200 nM
- IC50 (LU-165): > 10200 nM
- IC50 (MONO-MAC-6): 6670 nM
- IC50 (NB1): > 10200 nM
- IC50 (NCI-H2196): > 10200 nM
- IC50 (NCI-H64): > 10200 nM
- IC50 (SCC-3): > 10200 nM
- IC50 (SIG-M5): 8070 nM
- IC50 (SIMA): > 10200 nM
- IC50 (SU-DHL-1): > 10200 nM
- IC50 (TE-441-T): > 10200 nM
- IC50 (TUR): > 10200 nM

SMILES: Cc1nc(Nc2ncc(C(=O)Nc3c(C)cccc3Cl)s2)cc(N2CCN(CCO)CC2)n1 [DASATINIB]
- IC50 (COR-L279): > 1280 nM
- IC50 (EVSA-T): > 1280 nM
- IC50 (LU-165): > 1280 nM
- IC50 (MONO-MAC-6): > 1280 nM
- IC50 (NB1): > 1280 nM
- IC50 (NCI-H2196): > 1280 nM
- IC50 (NCI-H64): > 1280 nM
- IC50 (SCC-3): > 1280 nM
- IC50 (SIG-M5): > 1280 nM
- IC50 (SIMA): > 1280 nM
- IC50 (SU-DHL-1): > 1280 nM
- IC50 (TE-441-T): > 1280 nM
- IC50 (TUR): > 1280 nM

SMILES: Cc1n[nH]c2ccc(-c3cncc(OC[C@@H](N)Cc4c[nH]c5ccccc45)c3)cc12 [A-443654]
- IC50 (COR-L279): 570 nM
- IC50 (EVSA-T): 220 nM
- IC50 (LU-165): 620 nM
- IC50 (MONO-MAC-6): 77.2 nM
- IC50 (NB1): 117 nM
- IC50 (NCI-H2196): 648 nM
- IC50 (NCI-H64): > 1020 nM
- IC50 (SCC-3): 620 nM
- IC50 (SIG-M5): 130 nM
- IC50 (SIMA): > 1020 nM
- IC50 (SU-DHL-1): 797 nM
- IC50 (TE-441-T): 798 nM
- IC50 (TUR): > 1020 nM

SMILES: CC[C@@]1(O)C(=O)OCc2c1cc1n(c2=O)Cc2cc3ccccc3nc2-1 [CAMPTOTHECIN]
- IC50 (EW-22): 0.557 nM
- IC50 (HCT-15): > 100 nM
- IC50 (HT-1080): 0.394 nM
- IC50 (HT-3): 0.212 nM
- IC50 (JEG-3): 13.1 nM
- IC50 (KOSC-2): 4.39 nM
- IC50 (KP-4): 3.16 nM
- IC50 (KYSE-140): 69.7 nM
- IC50 (KYSE-180): 13.2 nM
- IC50 (KYSE-270): 5.22 nM
- IC50 (KYSE-450): 23.7 nM
- IC50 (ME-180): 2.69 nM
- IC50 (MFE-280): 21.6 nM
- IC50 (MG-63): 7.65 nM
- IC50 (MKN-1): 37.9 nM
- IC50 (MKN-28): 51.2 nM
- IC50 (MKN-45): 27.5 nM
- IC50 (NCI-H1993): > 100 nM
- IC50 (NCI-H2009): 68.1 nM
- IC50 (NCI-H2170): 13.7 nM
- IC50 (NCI-H2342): > 100 nM
- IC50 (NCI-H596): > 100 nM
- IC50 (OAW-28): 7.26 nM
- IC50 (OVCAR-3): > 100 nM
- IC50 (OVCAR-8): 7.27 nM
- IC50 (P12-Ichikawa): 0.102 nM
- IC50 (RT-112): 14.9 nM
- IC50 (SK-HEP1): 7.25 nM
- IC50 (SK-LU-1): 4.71 nM
- IC50 (SW1088): 27.8 nM
- IC50 (SW1417): 52.7 nM
- IC50 (SW1783): 24.6 nM
- IC50 (SAOS-2): 17.8 nM
- IC50 (T98G): 27.2 nM
- IC50 (TCC-SUP): 39 nM
- IC50 (647-V): 0.896 nM
- IC50 (A673): 0.815 nM
- IC50 (AU565): 3.68 nM
- IC50 (BFTC-909): 6.92 nM
- IC50 (CAL-62): 0.984 nM
- IC50 (UMUC3): 3.09 nM
- IC50 (YKG-1): 5.45 nM
- IC50 (CHL-1): 6.09 nM
